Measured values from paper PMC9611598, “Cyclodextrin Derivatives as Promising Solubilizers to Enhance the Biological Activity of Rosmarinic Acid” (Pharmaceutics, 2022).
Values after ≈ are worked out from the molar mass of the structure shown.

How the values were obtained:
tyrosinase = biological target: T1, tyrosinase; experiment: L-DOPA oxidation, […] nm; type: biochemical; details: 2.0 mM L-DOPA stock, phosphate buffer pH 6.8, room temperature; RA in 50% DMSO, 0.05-2.5 mg/mL test solutions, 25 µL per well; value may refer to prepared solution, not final well concentration
T1 construct: gene PPO3; mushroom tyrosinase is a guess from usual assay practice

[1] = biological target: AChE (acetylcholinesterase); experiment: Ellman assay, […] nm; type: biochemical; details: acetylthiocholine iodide, DTNB, Tris-HCl pH 8.0, room temperature; RA in DMSO, 2.5-25 mg/mL test solutions, 20 µL per well; value may refer to prepared solution, not final well concentration

Q: How did the IC50 (tyrosinase) turn out when `O=C(/C=C/c1ccc(O)c(O)c1)O[C@H](Cc1ccc(O)c(O)c1)C(=O)O` [RA, rosmarinic acid] was run?
A: The IC50 was 1.591 ± 0.077 mg/mL (≈ 4.42 mM).

Q: And the IC50 [1]?
A: The IC50 was 8.983 ± 0.162 mg/mL (≈ 24.9 mM).
